In patent US8481494B2, “Compounds for the treatment of diseases related to protein misfolding” (priority 2009, dated 2013):
Converted amounts (≈) assume the structure as drawn. Like-named read-outs stand apart in the source and are kept apart here. *1 amine or outer side, *2 acyl side, *3 side chain or, on linkers, in order; H or OH if unused. Where a SMILES comes first, the peptide text is derived from it. [ ]: non-standard residue; d: D form. The star is where a group is joined. X1 = O=C(c1cc([N+](=O)[O-])n[nH]1)*; X2 = O=C(c1cc(N[*:1])n[nH]1)[*:2]; AEEEA = NCCOCCOCCOCC(=O)O

Columns and labels:
[1] = test system: differentiated rat pheochromocytoma (PC-12) cells; assay: cells
Procedure: Next, to examine whether the aminopyrazole trimers could protect cell from Aβ42-induced neurotoxicity, cells were treated for […] with 10 μM Aβ(1-42), a concentration that produces 30 to 40% decrease in cell viability, in the absence or presence of 100 μM of each compound. The viability of the cells then was assessed using the MTT assay.
MTT viability assays. Cell viability assays were performed as described in Fradinger et al. (Fradinger et al., PNAS, 2008). Rat pheochromocytoma (PC-12) cells were maintained in F-12 nutrient mixture with Kaighn's modification (F-12K) (Gibco BRL, Carlsbad, Calif.) with 15% heat-inactivated horse serum and 2.5% FBS at 37° C. in an atmosphere of 5% CO2. For cell viability assays, cells were plated in 96-well plates at a density of 25,000 cells per well in differentiation media (F-12K, 0.5% FBS, […] nerve growth factor) and maintained for 48 h. Aβ42 was solubilized in a minimal amount of DMSO (Sigma) and then diluted in the F-12K media in the absence or presence of the compounds and then added to cells and incubated for 48 h at 37° C. The final Aβ42 concentration was always kept constant at 10 μM. The stock solutions of the compounds were prepared at 10 mM in DMSO and diluted in the F-12K media at the required concentration. Negative controls included DMSO at the same concentration as in the peptide solutions and media alone. A positive control was […] staurosporine as lethal dose which represented 100% reduction in cell viability, based on which the percentage viability of all of the experimental conditions was calculated. Cell viability was assessed quantitatively by the CellTiter 96 Non-Radioactive Cell Proliferation Assay (Promega). Briefly, 15 μl of 3-(4,5-dimethylthiazol-2-yl)-2,5-diphenyltetra-zolium bromide (MTT) dye solution was incubated with the cells for 3 h. Then 100 μl of solubilization/stop solution was added and the plates were incubated overnight in the dark to ensure complete solubilization. Plates were read by using a Synergy HT microplate reader (BioTek), and the absorbance at 570 nm (formazan product) minus the absorbance at 630 nm (background) was recorded. Corrected absorbance was used to calculate the percent cell viability from the experimental change (Amedia-Aexperimental) over the dynamic range (Amedia-Astaurosporine). At least three independent experiments with six replicates (n≧18) were carried out, and the results were averaged.
To determine the IC50 value of each of the compounds, dose-dependence MTT experiments with the compounds were conducted. Aβ42 was used at 10 μM and the compounds were used at 100, 30, 10, 3, 1 and 0.3 μM. Three independent experiments with six replicates (n≧18) were carried out, and results were averaged. The data for each compound was fitted to the following equation to get the IC50 values. y=Bottom+((Top−Bottom)/(1+10^(x-log(IC^50^))))
Top: the y value at which the top of the sigmoidal curve becomes parallel to the X-axis; Bottom: the y value at which the bottom of the sigmoidal curve becomes parallel to the X-axis.
Also, MTT viability assays were run with differentiated PC-12 cells.

Aβ(1-42) = biological target: T1, Aβ(1-42) (Homo sapiens, UniProt P05067); assay: ThT equilibrium inhibition assay of Aβ aggregation; type: biochemical; conditions: for ThT fluorescence level, inhibition of aggregation: 33 μM Aβ42, 198 μM ligand, 10 mM PBS pH 7.3, 72 h
T1 construct: Aβ(1-42)-peptide (Bachem, Bubendorf, Germany) was prepared in HFIP; purchased Bachem, Bubendorf
Procedure: After 72 h, the aggregation process has reached a maximum in the absence or presence of any trimeric ligand, even for the slow Aβ (1-40) peptide. The respective equilibrium concentration is then indicated by the relative fluorescence intensity reached at the end point. The full series of new aminopyrazole trimer derivatives was subjected to ThT inhibition experiments and the final equilibrium was analyzed by comparison of the respective fluorescence intensities of intercalated dye at 482 nm (exc. at 442 nm). […] Their proposed mechanism of action is discussed within the next chapters together with all the other biophysical, biochemical as well as modeling data.
(§1) Thioflavin T (ThT) measurements were carried out in a 384-well plate (Nunc GmbH, Wiesbaden, Germany) in an InfiniTe 200 plate reader (Tecan GmbH, Crailsheim, Germany). Fluorescence intensity was measured at 37° C., 446 nm excitation wavelength (bandwidth 9 nm) and 490 nm emission wavelength with a bandwidth of 20 nm. Each data point was averaged over 40 lamp flashes. Each measurement cycle was started by shaking the sample carrier orbitally for 30 s at medium intensity to avoid settling of larger aggregates. The 384-well plate was covered with a transparent and DMSO-stable film (Nunc GmbH, Wiesbaden, Germany). Each single sample was composed of 33 μM Aβ(1-40) or rather Aβ(1-42) in 10 mM PBS (phosphate buffered saline), 10.7% DMSO, 10 μM ThT and 198 μM of the test compound. For graph representation emission values of fourfold samples were averaged. Each test compound was measured separately, both in 10 mM PBS and 10 mM PBS with ThT to exclude any potential interactions between ligand and ThT.
The ThT assay solution was briefly centrifugated and it was pipetted in a 384-well plate. The ThT fluorescence was measured at λEx=446 nm and λEm=490 nm. Each point is the average of quadruplication.

[2] = biological target: T2, preformed Aβ(1-42) fibrils (Homo sapiens, UniProt P05067); assay: ThT equilibrium disaggregation assay of preformed fibrils; type: biochemical; conditions: 33 μM Aβ42 preformed fibrils, 198 μM ligand, 10 mM PBS pH 7.3
T2 construct: Aβ(1-42)-peptide (Bachem, Bubendorf, Germany) was prepared in HFIP; purchased Bachem, Bubendorf
Excerpt: Starting from preformed fibrils, the disassembly process was also monitored with the full series of modified trimeric aminopyrazoles. […] In other words, little difference is observed between the end points of aggregation assays, in which the ligand inhibits de novo aggregation starting from monomeric Aβ molecules, and those experiments, which require disaggregation of preformed fibrils by externally added ligand. Experimental evidence is thus provided for the fact, that aminopyrazole ligands operate in a fully reversible fashion, and reach an open equilibrium when the thermodynamically most favorable complex is formed.
as §1
After that, 9.5 μL ThT (62.7 μM stock solution) was pipetted and the assay solution was briefly centrifugated. The ThT fluorescence was measured at λEx=446 nm and λEm=490 nm. For graph representation emission values of fourfold samples were averaged.

T2 sequence (P05067 672-713 limits assumed): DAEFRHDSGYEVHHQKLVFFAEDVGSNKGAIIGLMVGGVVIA
T1 sequence (P05067 672-713 limits assumed): as above

Compound	viability increase (rescue from Aβ toxicity) ([1]; PC-12 cells, 10 μM Aβ(1-42), 100 μM compound) [%]	IC50 ([1]; read-out: IC50 of inhibition of Aβ-induced toxicity, PC-12 cells, MTT, Aβ42 10 μM, ligand 0.3-100 μM) [µM]	ThT fluorescence level, inhibition of aggregation (Aβ(1-42)) [%]	ThT values compared with the original trimer (Aβ(1-42); Aβ(1-42), in words)	ThT fluorescence level, disaggregation [2] [%]	solubility [mM]	IC50 [1] [µM]
COC(=O)C(CCCCN)NC(=O)COCCOCCOCCNC(=O)c1cc(NC(=O)c2cc(NC(=O)c3cc([N+](=O)[O-])n[nH]3)n[nH]2)n[nH]1.O=C(O)C(F)(F)F (stereo not drawn) [Trimer-TEG-Lys-OMe, Trifluoro-acetate5-methoxycarbonyl-5-(2-{2-[2-(2-{[5-({5-[(5-nitro-2H-pyrazole-3-carbonyl)-amino]-2H-pyrazole-3-carbonyl}-amino)-2H-pyrazole-3-carbonyl]-amino}-ethoxy)-ethoxy]ethoxy}-acetylamino)-pentyl-ammonium]	> 40	52.7	20	surpass the original trimer activity	20	–	–
NCCCC[C@H](NC(=O)c1cc(NC(=O)c2cc(NC(=O)c3cc([N+](=O)[O-])n[nH]3)n[nH]2)n[nH]1)C(=O)N[C@@H](CCCCN)C(=O)N[C@@H](CCCCN)C(=O)N[C@@H](CCCCN)C(=O)N[C@@H](CCCCN)C(=O)NCC(=O)O [Trimer-KKKKKG-OH, 3-(3-(3-nitro-1H-pyrazole-5-carboxamido)-1H-pyrazole-5-carboxamido)-1H-pyrazole-5-carboxamido-(S)-lysinyl-(S)-lysinyl-(S)-lysinyl-(S)-lysinyl-(S)-lysinyl-(S)-glycine] (X1-[X2][X2]KKKKKG-OH)	–	–	20	–	20	> 4.95	–
CC(C)C[C@H](NC(=O)[C@H](CCCCN)NC(=O)COCCOCCOCCNC(=O)c1cc(NC(=O)c2cc(NC(=O)c3cc([N+](=O)[O-])n[nH]3)n[nH]2)n[nH]1)C(=O)N[C@H](C(=O)N[C@@H](Cc1ccccc1)C(=O)N[C@@H](Cc1ccccc1)C(=O)O)C(C)C [Trimer-TEG-KLVFF-OH, 1-(3-(3-(3-Nitro-1H-pyrazole-5-carboxamido)-1H-pyrazole-5-carbox-amido)-1H-pyrazol-5-yl)-1-oxo-5,8,11-trioxa-2-azatridecan-13-carboxamido-(S)-lysinyl-(S)-leucinyl-(S)-valinyl-(S)-phenylalaninyl-(S)-phenylalanine] (X1-[X2][X2][AEEEA]KLVFF-OH)	–	–	–	–	–	0.2 to 4.95 (≈ 240 to 5940 µg/mL)	> 100
1-(3-(3-(3-nitro-1H-pyrazole-5-carboxamido)-1H-pyrazole-5-carbox-amido)-1H-pyrazol-5-yl)-1-oxo-5,8,11-trioxa-2-azatridecan-13-carboxamido-(S)-lysinyl-(S)-lysinyl-(S)-lysinyl-(S)-lysinyl-(S)-lysinyl-(S)-glycine [Trimer-TEG-KKKKKG-OH]	–	–	20	–	20	–	–
